Earlier results on 1 compound are cited in patent US20070141027A1, “Non-lethal conditioning methods for conditioning a recipient for bone marrow transplantation” (UNIVERSITY OF LOUISVILLE RESEARCH FOUNDATION INC., priority 2003, published 2007).

The data set deals with mice. The following applies: reduced from 700 cGy TBI alone; CyP 200 mg/kg i.p. 2 days after BMT; ALG or anti-CD8 on day -3 added to it.

With `O=P1(N(CCCl)CCCl)NCCCO1` (stereo not shown) [cyclophosphamide (CyP), cyclophosphamide], the “TBI dose for allogeneic marrow engraftment” value was 500 cGy.
